Assay results as given in ChEMBL document CHEMBL1148111, “Synthesis and biological evaluation of hyperforin analogues. Part I. Modification of the enolized cyclohexanedione moiety” (J Nat Prod, 2002).

Biological target: Sodium-dependent serotonin transporter (Rattus norvegicus, UniProt P31652)
Assay: Inhibition of [3H]5HT reuptake at serotonin transporter in rat brain synaptosomes
Type: subcellular

Sequence of Sodium-dependent serotonin transporter (P31652 whole entry): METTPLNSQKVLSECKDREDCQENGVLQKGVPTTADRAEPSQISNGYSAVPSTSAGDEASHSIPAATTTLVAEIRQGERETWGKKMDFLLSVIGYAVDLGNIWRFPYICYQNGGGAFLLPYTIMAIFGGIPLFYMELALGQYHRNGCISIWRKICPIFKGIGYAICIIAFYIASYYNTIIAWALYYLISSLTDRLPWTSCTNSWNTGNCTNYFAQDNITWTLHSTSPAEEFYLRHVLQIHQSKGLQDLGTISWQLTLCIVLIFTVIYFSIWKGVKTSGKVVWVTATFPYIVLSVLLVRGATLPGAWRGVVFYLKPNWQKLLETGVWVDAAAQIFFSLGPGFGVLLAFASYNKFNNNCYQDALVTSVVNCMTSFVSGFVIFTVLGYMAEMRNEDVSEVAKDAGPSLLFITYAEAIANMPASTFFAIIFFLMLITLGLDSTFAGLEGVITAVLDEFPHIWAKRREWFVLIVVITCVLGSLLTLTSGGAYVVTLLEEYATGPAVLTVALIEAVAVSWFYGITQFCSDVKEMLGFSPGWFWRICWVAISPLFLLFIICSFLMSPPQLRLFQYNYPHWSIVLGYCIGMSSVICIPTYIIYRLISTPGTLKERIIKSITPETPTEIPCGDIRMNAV

Row | IC50 | Structure (SMILES)
1 | > 18.1 µM | CC(C)=CCC[C@]1(C)[C@@H](CC=C(C)C)C[C@]2(CC=C(C)C)C(=O)[C@@](O)(CC=C(C)C)C(=O)[C@@]1(C(=O)C(C)C)C2=O
2 | > 13.7 µM | CC(C)=CCC[C@]1(C)[C@@H](CC=C(C)C)C[C@@]2(CC=C(C)C)C(=O)[C@@]1(C(=O)C(C)C)C(=O)C(CC=C(C)C)=C2OC(=O)c1cc([N+](=O)[O-])cc([N+](=O)[O-])c1
3 | > 18.1 µM | CC(C)=CCC[C@]1(C)[C@@H](CC=C(C)C)C[C@]2(CC=C(C)C)C(=O)[C@]3(CC=C(C)C)O[C@@]2(O)[C@@]1(C(=O)C(C)C)C3=O
4 | > 18.7 µM | CC(C)=C/C=C1\C(=O)[C@@]2(CC=C(C)C)C[C@H](CC=C(C)C)[C@@](C)(CCC=C(C)C)[C@](C(=O)C(C)C)(C1=O)C2=O
5 | > 18.2 µM | COC1=C(CC=C(C)C)C(=O)[C@]2(C(=O)C(C)C)C(=O)[C@]1(CC=C(C)C)C[C@H](CC=C(C)C)[C@@]2(C)CCC=C(C)C
6 | > 18.1 µM | CC(C)=CCC[C@]1(C)[C@@H](CC=C(C)C)C[C@]23C[C@@H](C(C)(C)O)OC2=C(CC=C(C)C)C(=O)[C@]1(C(=O)C(C)C)C3=O
7 | > 18.2 µM | CC(C)=CCC[C@]1(C)[C@@H](CC=C(C)C)C[C@]2(CC=C(C)C)C(=O)[C@](C)(CC=C(C)C)C(=O)[C@]1(C(=O)C(C)C)C2=O [C-Methylhyperforin]
8 | > 18.7 µM | C=C(C)[C@@H]1C[C@@]23C[C@H](CC=C(C)C)[C@@](C)(CCC=C(C)C)[C@](C(=O)C(C)C)(C(=O)C(CC=C(C)C)=C2O1)C3=O [DEHYDROFUROHYPERFORIN]
9 | > 18.7 µM | CC(C)=CCC[C@]1(C)[C@@H](CC=C(C)C)C[C@@]2(CC=C(C)C)C(=O)[C@]1(C(=O)C(C)C)C(=O)C1=C2OC(C)(C)C=C1 [DEHYDROHYPERFORIN]
10 | > 17.3 µM | CC(=O)OC1=C(CC=C(C)C)C(=O)[C@]2(C(=O)C(C)C)C(=O)[C@]1(CC=C(C)C)C[C@H](CC=C(C)C)[C@@]2(C)CCC=C(C)C [HYPERFORIN ACETATE]
11 | > 13.7 µM | COc1cc(C(=O)OC2=C(CC=C(C)C)C(=O)[C@@]3(C(=O)C(C)C)C(=O)[C@]2(CC=C(C)C)C[C@H](CC=C(C)C)[C@@]3(C)CCC=C(C)C)cc(OC)c1OC [HYPERFORINTRIMETHOXYBENZOATE]

Row | Structure (SMILES) | IC50
12 | CC(C)=CCC[C@]1(C)[C@@H](CC=C(C)C)C[C@]2(CC=C(C)C)C(=O)C(CC=C(C)C)=C(O)[C@@]1(C(=O)C(C)C)C2=O | 2.05 µM
